Where a name gives a salt, the structure may show the parent alone. Read-outs that look alike come from different tables or passages of the source.
How the values were obtained:
[1] = In vitro logP measurement, octanol/phosphate buffer pH 7.4; format: physicochemical; details: octanol/phosphate buffer pH 7.4, radiolabeled compound, mean ± SD, n = 8
Experimental: In vitro logP measurement: Octanol/water partition coefficient of the radiolabeled compounds were measured at Columbia University, using the method of Wilson et al. (2001), with some modifications. Briefly, 300 to 500 μCi of radioligand in EtOH was added to a separatory funnel containing octanol (20 mL) and phosphate buffer (20 mL, pH 7.4). The mixture was shaken mechanically for 3 minutes and the layers were separated. The octanol layer (15 mL) was transferred to a second separatory funnel containing 15 mL of the phosphate buffer (pH 7.4). The mixture was shaken mechanically for 3 minutes and the layers were separated. This second octanol layer was then partitioned into four test tubes (2 mL each) and the phosphate buffer (2 mL each) added. The test tubes were vortexed for 10 minutes, and then centrifuged for 10 minutes at 1000 rpm to separate the layers. The octanol and aqueous phases (1.0 mL each) were transferred into counting tubes and counted with a gamma counter (Wallac 1480 Wizard 3M Automatic Gamma Counter, Perkin-Elmer, Boston, Mass.). The radioactivity counts were decay-corrected and the partition coefficient calculated as P=counts in octanol/counts in buffer. Eight separate measurements were preformed for each tracer.

[2] = target: T1, serotonin transporter (SERT) (Rattus norvegicus, UniProt P31652); experiment: In vitro binding affinity for SERT, radioligand [^3H]paroxetine (Table 1); design: species or system rat or human (cloned)
T1 construct: membranes prepared from either the rat cortical tissues or cells expressed with cloned-human transporters; from tissue; host or cells: rat cortical tissue membranes (inferred; the alternative is cells expressing cloned human SERT)
Experimental: (§1) Selected compounds were assayed in vitro for their binding affinity for the dopamine transporter (DAT), serotonin transporter (SERT), and norepinephrine transporter (NET) using membranes prepared from either the rat cortical tissues or cells expressed with cloned-human transporters and radioligands. Radioligands used were [^3H]paroxetine (SERT), [^3H]nisoxetine (NET), and [^3H]GBR12935 (DAT).

[3] = target: T2, dopamine transporter (DAT) (Homo sapiens, UniProt Q01959); experiment: In vitro binding affinity for DAT, radioligand [^3H]GBR12935 (Table 1); design: species or system rat or human (cloned)
T2 construct: host or cells: either rat cortical tissue or cells expressing the cloned human transporter
Experimental: as §1

[4] = target: T3, norepinephrine transporter (NET) (Homo sapiens, UniProt P23975); experiment: In vitro binding affinity for NET, radioligand [^3H]nisoxetine (Table 1); design: species or system rat or human (cloned)
T3 construct: host or cells: either rat cortical tissue or cells expressing the cloned human transporter
Experimental: as §1

SERT [5] = target: T4, SERT (Rattus norvegicus, UniProt P31652); design: host or cells: rat brain membranes (for ADAM/IDAM); details: literature; [^125I] ligands in rat brain membranes; cited from earlier work
SERT [6] = target: T4, SERT; experiment: In vitro binding assay on rat frontal cortex homogenates using [^3H]paroxetine; design: from tissue; host or cells: frontal cortex of male Sprague-Dawley rats, washed membrane homogenate; details: mean ± SD, n = 3
Experimental: In vitro binding assays: Measurement of the inhibition constants (Ki) of the labeled compounds in FIG. 1 on rat frontal cortex homogenates were performed at Columbia University using [^3H]paroxetine, as previously described (Laruelle et al., 1988b). Briefly, male Sprague-Dawley rats (250-300 g) were killed by decapitation. Dissection of the brain was carried out on ice and samples of the frontal cortex were stored at −40° C. until binding assay. After thawing, samples were homogenized in 10 volumes of buffer (50 mM Tris-HCl, pH 7.4, 120 mM NaCl and 5 mM KCl). The homogenates were centrifuged at 10,000 rpm for 10 minutes. Pellets were resuspended in 10 volumes of buffer, incubated at 37° C. for 10 minutes, and centrifuged again. This procedure was then repeated a third time.
For the binding assay, membranes were suspended in buffer at a final protein concentration of 5 mg/mL. Unlabelled drugs were dissolved in dimethyl sulfoxide (DMSO) in borosilicate glass tubes to yield a 1 mM stock solution, from which subsequent serial dilutions were performed with the buffer. Aliquots of tissue preparation were incubated with [^3H]paroxetine (0.1 nM) at 22° C. or 37° C. for 60 minutes in the absence or presence of unlabelled drug (10^−5 to 10^−12 M) to yield a final volume of 0.5 mL (borosilicate glass tubes). Nonspecific binding was defined by incubation with 10 μM of citalopram. Each concentration was performed in triplicates. After incubation, the mixture was rapidly filtered through Whatman GF/B glass fiber filters using a 48-channel cell harvester (Brandel, Gaithersburg, Md.). The filters were washed 3 times with 4 mL each of ice cold buffer, placed in vials with 4 mL Ultima Gold solvent (Packard Instrument Co., Downers Grove, Ill.), and counted the following day for radioactivity in a liquid scintillation counter (Tricarb 1500, Packard Instrument Co., Downers Grove, Ill.). This experiment was performed three times at 22° C. and 37° C., on three different days. Ki values were derived using GraphPad Prism software (San Diego, Calif.).

[7] = humans, literature; cited from earlier work
SERT [8] = details: literature; cited from earlier work
[9] = literature (Laruelle et al., 1994a); cited from earlier work
[10] = 22° C., read-out: Ki for SERT at 22° C.
[11] = 37° C., read-out: Ki for SERT at 37° C.

T4 sequence (P31652 whole entry): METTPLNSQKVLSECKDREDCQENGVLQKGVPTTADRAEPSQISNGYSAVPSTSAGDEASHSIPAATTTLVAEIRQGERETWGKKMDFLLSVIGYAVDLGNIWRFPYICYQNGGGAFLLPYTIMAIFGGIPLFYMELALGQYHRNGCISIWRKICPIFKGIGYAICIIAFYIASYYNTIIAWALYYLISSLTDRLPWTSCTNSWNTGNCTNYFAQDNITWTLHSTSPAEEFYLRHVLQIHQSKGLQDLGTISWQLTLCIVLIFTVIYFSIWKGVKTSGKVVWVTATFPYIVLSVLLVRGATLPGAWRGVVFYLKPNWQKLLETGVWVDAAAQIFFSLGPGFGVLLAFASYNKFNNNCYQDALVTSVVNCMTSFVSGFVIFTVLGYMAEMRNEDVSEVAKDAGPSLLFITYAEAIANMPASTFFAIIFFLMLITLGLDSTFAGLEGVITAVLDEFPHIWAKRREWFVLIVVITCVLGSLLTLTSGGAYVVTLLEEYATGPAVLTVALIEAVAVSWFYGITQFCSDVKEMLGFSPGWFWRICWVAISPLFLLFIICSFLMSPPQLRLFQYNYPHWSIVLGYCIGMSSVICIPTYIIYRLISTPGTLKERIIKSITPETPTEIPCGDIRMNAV
T1 sequence (P31652 whole entry): as above
T2 sequence (Q01959 whole entry, species assumed): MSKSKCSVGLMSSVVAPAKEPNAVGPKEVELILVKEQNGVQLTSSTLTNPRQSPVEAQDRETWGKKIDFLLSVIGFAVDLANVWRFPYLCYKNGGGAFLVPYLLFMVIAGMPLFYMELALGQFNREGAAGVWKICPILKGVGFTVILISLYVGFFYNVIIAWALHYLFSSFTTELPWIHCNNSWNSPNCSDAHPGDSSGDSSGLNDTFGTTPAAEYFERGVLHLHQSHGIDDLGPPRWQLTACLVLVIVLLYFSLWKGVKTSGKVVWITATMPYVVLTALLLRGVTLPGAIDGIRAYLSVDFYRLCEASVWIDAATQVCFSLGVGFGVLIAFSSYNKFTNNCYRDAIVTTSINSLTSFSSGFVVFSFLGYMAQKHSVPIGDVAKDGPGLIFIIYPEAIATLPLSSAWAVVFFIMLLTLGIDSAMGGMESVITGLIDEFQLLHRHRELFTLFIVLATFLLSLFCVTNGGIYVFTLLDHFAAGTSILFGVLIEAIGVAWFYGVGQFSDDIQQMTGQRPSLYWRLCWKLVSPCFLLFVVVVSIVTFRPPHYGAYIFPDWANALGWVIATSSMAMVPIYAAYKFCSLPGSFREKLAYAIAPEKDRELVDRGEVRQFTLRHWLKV
T3 sequence (P23975 whole entry, species assumed): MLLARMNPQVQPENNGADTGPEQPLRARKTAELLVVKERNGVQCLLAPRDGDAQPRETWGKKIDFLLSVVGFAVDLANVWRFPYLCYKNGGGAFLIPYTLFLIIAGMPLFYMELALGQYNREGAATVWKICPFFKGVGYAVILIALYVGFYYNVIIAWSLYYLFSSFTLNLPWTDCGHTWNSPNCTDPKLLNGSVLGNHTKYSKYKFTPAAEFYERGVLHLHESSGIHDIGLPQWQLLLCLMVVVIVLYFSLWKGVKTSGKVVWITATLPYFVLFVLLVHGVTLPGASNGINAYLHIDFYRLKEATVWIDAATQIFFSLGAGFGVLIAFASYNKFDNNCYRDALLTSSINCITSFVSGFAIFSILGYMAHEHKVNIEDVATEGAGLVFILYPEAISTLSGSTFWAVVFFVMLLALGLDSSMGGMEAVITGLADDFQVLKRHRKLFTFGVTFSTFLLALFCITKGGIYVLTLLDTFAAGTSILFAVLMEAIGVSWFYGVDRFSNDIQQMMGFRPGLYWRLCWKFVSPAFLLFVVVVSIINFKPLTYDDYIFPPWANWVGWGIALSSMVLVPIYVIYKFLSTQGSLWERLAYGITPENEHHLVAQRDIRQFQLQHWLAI

Compound CN(C)Cc1ccccc1Sc1ccc(F)cc1N (as salt: tartrate) [AFA, 2-(2-(Dimethylaminomethyl)phenylthio)-5-fluorophenylamine] has a melting point of 158 to 159 °C.
With CN(C)Cc1ccccc1Sc1ccc(CF)cc1N (as salt: tartrate) [AFM, 2-(2-(Dimethylaminomethyl)phenylthio)-5-fluoromethylphenylamine] the melting point was 142 to 143 °C.
Compound CNCc1ccccc1Sc1ccc(C)cc1N (as salt: tartrate) [Example 39, 5-Methyl-2-(2-(methylaminomethyl)phenylthio)phenylamine] has a melting point of 164 to 166 °C.
CNCc1ccccc1Sc1ccc(F)cc1N (as salt: tartrate) [Example 41, 5-Fluoro-2-(2-(methylaminomethyl)phenylthio)phenylamine] gave a melting point of 106 to 108 °C.
Compound CSc1ccc(C2CN3CCCC3c3ccccc32)cc1 (single isomer, unassigned; (+)) [McN 5652, (+)-6β-(4-methylthiophenyl)-1,2,3,5,6α,10β-hexahydropyrrolo[2,1-a]isoquinoline] has a logP [1] of 2.51 ± 0.03.
In the case of CN(C)Cc1ccccc1Sc1ccc(I)cc1N [ADAM, 2-{2-[(dimethylamino)methyl]phenylthio}-5-iodophenylamine], the Ki [2] is reported as 0.32 nM, the Ki [3] is reported as > 10000 nM and the Ki [4] is reported as 1350 nM. For the same compound, the logP [1] was 3.31 ± 0.13, the Ki (SERT [5]) was 0.15 nM and the Ki (SERT [6]; [10]) was 0.32 ± 0.11 nM. For the same compound, the Ki (SERT [6]; [11]) was 0.4 ± 0.16 nM.
In the case of CN(C)Cc1ccccc1Sc1ccc(CF)cc1N [AFM, 2-(2-(Dimethylaminomethyl)phenylthio)-5-fluoromethylphenylamine], the Ki [2] is reported as 0.23 nM, the Ki [3] is reported as > 10000 nM and the Ki [4] is reported as 664 nM. It also gave a logP [1] of 2.44 ± 0.03, a Ki (SERT [6]; [10]) of 0.23 ± 0.04 nM and a Ki (SERT [6]; [11]) of 0.42 ± 0.12 nM.
Work on CN(C)Cc1ccccc1Sc1ccc(Br)cc1N [DAPA, 5-bromo-2-{2[(dimethylamino)methyl]phenylthio}phenylamine] yielded a logP [1] of 3.06 ± 0.12, a Ki (SERT [6]; [10]) of 0.38 ± 0.24 nM and a Ki (SERT [6]; [11]) of 0.33 ± 0.13 nM.
With CN(C)Cc1ccccc1Sc1ccc(C#N)cc1N [DASB, 3-amino-4-{2-[(dimethylamino)methyl]phenylthio}benzonitrile] the Ki ([2]; read-out: Ki SERT) was 0.87 nM, the Ki [3] was > 10000 nM and the logP [1] was 2.38 ± 0.03. The Ki (SERT [6]; [10]) was 0.87 ± 0.41 nM and the Ki (SERT [6]; [11]) was 1.77 ± 0.25 nM.
In the case of COc1c(O[11CH3])cccc1[C@H](O)C1CCN(CCc2ccc(F)cc2)CC1 [[^11C]MDL 100907], the “VT CER (nonspecific distribution volume)” value [7] is given as 18 ± 4 mL/g.
For CN(C)Cc1ccccc1Sc1ccc(I)cc1CO [[^123I]IDAM, 5-iodo-2-((2-((dimethylamino)methyl)phenyl)thio)benzyl alcohol], the Kd (SERT [8]) is listed as 0.25 nM.
In the case of COC(=O)C1C(c2ccc([123I])cc2)CC2CCC1N2C (stereo not drawn) [[^123I]β-CIT, [^123I]2β-carbomethoxy-3β-(4-iodophenyl)tropane], the Plasma free fraction [9] is listed as 40±5% and the “VT CER (nonspecific distribution volume)” value [7] is listed as 28 ± 3 mL/g.
In the case of CN(C)Cc1ccccc1Sc1ccc([125I])cc1N [[^125I]ADAM], the Ki (SERT [5]) is given as 0.15 nM.
For CN(C)Cc1ccccc1Sc1ccc(I)cc1CO [[^125I]IDAM], the Ki (SERT [5]) is listed as 0.25 nM.
